The molecules below were run against human GPR43 (Homo sapiens (Human), UniProt O15552) (assay: Ca-Flux functional assay: determination of agonist/positive allosteric modulator (PAM) activity). Settings: CHO-K1 Gα16 cells stably expressing human GPR43; compound added with EC20 sodium acetate; intracellular Ca2+ by FLIPR; does not distinguish agonist from PAM.
Sequence of human GPR43 (O15552 whole entry): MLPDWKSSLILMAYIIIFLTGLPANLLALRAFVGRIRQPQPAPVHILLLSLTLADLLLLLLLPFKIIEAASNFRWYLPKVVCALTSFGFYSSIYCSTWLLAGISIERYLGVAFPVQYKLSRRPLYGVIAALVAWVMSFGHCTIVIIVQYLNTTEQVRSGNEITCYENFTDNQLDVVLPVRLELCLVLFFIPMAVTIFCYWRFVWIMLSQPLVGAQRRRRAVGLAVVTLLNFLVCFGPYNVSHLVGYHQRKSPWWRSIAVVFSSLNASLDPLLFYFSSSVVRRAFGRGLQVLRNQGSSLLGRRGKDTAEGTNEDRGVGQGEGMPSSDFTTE
Type: cell-based
Outline: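 Agonist or PAM activity read as intracellular Ca2+ rise by FLIPR after adding compound plus EC20 acetate, acetate EC20 set from a prior curve. Cells: CHO-K1 Gα16 with stable human GPR43. EC50 from ten-point half-log curves starting 10 μM.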
For Nc1[nH]c2c(C3CCCCC3)cncc2c1S(=O)(=O)c1ccccc1 [Example 32, 3-(benzenesulfonyl)-7-cyclohexyl-1H-pyrrolo[3,2-c]pyridin-2-amine], the EC50 was 0.037 µM. CC(Oc1ncnc2c(S(=O)(=O)c3ccccc3)c(N)[nH]c12)C1CC1 (centres unmarked) [Example 170, 7-(benzenesulfonyl)-4-(1-cyclopropylethoxy)-5H-pyrrolo[3,2-d]pyrimidin-6-amine] gave an EC50 of 0.04 µM. CC1CN(c2nc(N(C)C)nc3c(S(=O)(=O)c4ccccc4F)c(N)[nH]c23)CCO1 (centres unmarked) [Example 270, 7-(2-fluorobenzenesulfonyl)-2-N,2-N-dimethyl-4-(2-methylmorpholin-4-yl)-5H-pyrrolo[3,2-d]pyrimidine-2,6-diamine] showed an EC50 of 0.017 µM. Cc1nc(N2CCOC(C)(C)C2)c2[nH]c(N)c(S(=O)(=O)c3cccc(F)c3F)c2n1 [Example 280, 7-(2,3-difluorobenzenesulfonyl)-4-(2,2-dimethylmorpholin-4-yl)-2-methyl-5H-pyrrolo[3,2-d]pyrimidin-6-amine] was tested, and the EC50 was 0.003 µM. Molecule CC1CC(Oc2ncnc3c(S(=O)(=O)c4ccccc4)c(N)[nH]c23)CC(C)O1 (centres unmarked) [Example 210, 7-(benzenesulfonyl)-4-[(2,6-dimethyloxan-4-yl)oxy]-5H-pyrrolo[3,2-d]pyrimidin-6-amine] has an EC50 of 0.156 µM. For Nc1[nH]c2c(C3=CCCCC3)ncnc2c1S(=O)(=O)C1CCOC1 (centres unmarked) [Example 78, 4-(cyclohex-1-en-1-yl)-7-(oxolane-3-sulfonyl)-5H-pyrrolo[3,2-d]pyrimidin-6-amine], the EC50 was 2.34 µM. CC1CN(c2nc(C(F)(F)F)nc3c(S(=O)(=O)c4ccccc4F)c(N)[nH]c23)CCO1 (centres unmarked) [Example 268, 7-(2-fluorobenzenesulfonyl)-4-(2-methylmorpholin-4-yl)-2-(trifluoromethyl)-5H-pyrrolo[3,2-d]pyrimidin-6-amine] showed an EC50 of 0.017 µM. With Nc1[nH]c2c(C3=CCCCC3)ncnc2c1S(=O)(=O)C1CCOCC1 [Example 61, 4-(cyclohex-1-en-1-yl)-7-(oxane-4-sulfonyl)-5H-pyrrolo[3,2-d]pyrimidin-6-amine] the EC50 was 3.47 µM. Work on COc1ccc(S(=O)(=O)c2c(N)[nH]c3c(N4C[C@@H](C)O[C@@H](C)C4)ncnc23)cc1 [Example 130, 4-[(2R,6S)-2,6-dimethylmorpholin-4-yl]-7-(4-methoxybenzenesulfonyl)-5H-pyrrolo[3,2-d]pyrimidin-6-amine] yielded an EC50 of 0.02 µM. Cc1nc(N2CCOC(C)(C)C2)c2[nH]c(N)c(S(=O)(=O)c3cc(F)ccc3F)c2n1 [Example 288, 7-(2,5-difluorobenzenesulfonyl)-4-(2,2-dimethylmorpholin-4-yl)-2-methyl-5H-pyrrolo[3,2-d]pyrimidin-6-amine] was tested, and the EC50 was 0.008 µM. With Cc1cccc(S(=O)(=O)c2c(N)[nH]c3c(N4CCOC(C)C4)ncnc23)c1 (centres unmarked) [Example 121, 7-(3-methylbenzenesulfonyl)-4-(2-methylmorpholin-4-yl)-5H-pyrrolo[3,2-d]pyrimidin-6-amine] the EC50 was 0.067 µM. In the case of Cc1ccc(S(=O)(=O)c2c(N)[nH]c3c(C4CCCCC4)ncnc23)cc1 [Example 45, 4-cyclohexyl-7-[(4-methylbenzene)sulfonyl]-5H-pyrrolo[3,2-d]pyrimidin-6-amine], the EC50 is reported as 0.084 µM. Cc1nc(C2CCCC2)c2[nH]c(N)c(S(=O)(=O)c3cccc(F)c3)c2n1 [Example 209, 4-cyclopentyl-7-(3-fluorobenzenesulfonyl)-2-methyl-5H-pyrrolo[3,2-d]pyrimidin-6-amine] showed an EC50 of 0.303 µM. With COc1ccc(S(=O)(=O)c2c(N)[nH]c3c(C4CCCC4)ncnc23)cc1 [Example 73, 4-cyclopentyl-7-(4-methoxybenzenesulfonyl)-5H-pyrrolo[3,2-d]pyrimidin-6-amine] the EC50 was 0.118 µM. CC1CN(c2ncnc3c(S(=O)(=O)c4ccc(C(F)(F)F)cc4)c(N)[nH]c23)CCO1 (centres unmarked) [Example 136, 4-(2-methylmorpholin-4-yl)-7-[4-(trifluoromethyl)benzenesulfonyl]-5H-pyrrolo[3,2-d]pyrimidin-6-amine] showed an EC50 of 0.118 µM. In the case of C[C@@H]1CN(c2ncnc3c(S(=O)(=O)c4ccccc4)c(N)[nH]c23)C[C@@H](C)O1 [Example 87, 7-(benzenesulfonyl)-4-[(2R,6R)-2,6-dimethylmorpholin-4-yl]-5H-pyrrolo[3,2-d]pyrimidin-6-amine], the EC50 is reported as 0.034 µM. In the case of Cc1nc(OC2CCC2)c2[nH]c(N)c(S(=O)(=O)c3ccccc3)c2n1 [Example 252, 7-(benzenesulfonyl)-4-cyclobutoxy-2-methyl-5H-pyrrolo[3,2-d]pyrimidin-6-amine], the EC50 is reported as 0.067 µM. Nc1[nH]c2c(C3=CCCC3)ncnc2c1S(=O)(=O)c1ccccc1 [Example 22, 7-(benzenesulfonyl)-4-(cyclopent-1-en-1-yl)-5H-pyrrolo[3,2-d]pyrimidin-6-amine] gave an EC50 of 0.073 µM. With Cc1nc(N2CCOC(CF)C2)c2[nH]c(N)c(S(=O)(=O)c3ccccc3F)c2n1 (centres unmarked) [Example 266, 7-(2-fluorobenzenesulfonyl)-4-[2-(fluoromethyl)morpholin-4-yl]-2-methyl-5H-pyrrolo[3,2-d]pyrimidin-6-amine] the EC50 was 0.003 µM. Nc1[nH]c2c(C3CCCC3)ncnc2c1S(=O)(=O)c1ccccc1 [Example 23, 7-(benzenesulfonyl)-4-cyclopentyl-5H-pyrrolo[3,2-d]pyrimidin-6-amine] gave an EC50 of 0.097 µM. Nc1[nH]c2c(N3CC4CCC(C3)O4)ncnc2c1S(=O)(=O)c1ccccc1 [Example 132, 7-(benzenesulfonyl)-4-{8-oxa-3-azabicyclo[3.2.1]octan-3-yl}-5H-pyrrolo[3,2-d]pyrimidin-6-amine] gave an EC50 of 1.51 µM. For CN(Cc1cccc(Cl)c1)c1ncnc2c(S(=O)(=O)c3ccccc3)c(N)[nH]c12 [Example 90, 7-(benzenesulfonyl)-4-N-[(3-chlorophenyl)methyl]-4-N-methyl-5H-pyrrolo[3,2-d]pyrimidine-4,6-diamine], the EC50 was 0.041 µM. Cc1nc(N2CCOC(C)(C)C2)c2[nH]c(N)c(S(=O)(=O)c3ccc(Cl)cc3F)c2n1 [Example 279, 7-(4-chloro-2-fluorobenzenesulfonyl)-4-(2,2-dimethylmorpholin-4-yl)-2-methyl-5H-pyrrolo[3,2-d]pyrimidin-6-amine] was tested, and the EC50 was 0.004 µM. Work on CC1(C)CCN(c2ncnc3c(S(=O)(=O)c4ccccc4)c(N)[nH]c23)C1 [Example 47] yielded an EC50 of 0.358 µM. In the case of Cc1nc(N2CCO[C@@H](C(F)(F)F)C2)c2[nH]c(N)c(S(=O)(=O)c3ccccc3F)c2n1 [Example 289, 7-(2-fluorobenzenesulfonyl)-2-methyl-4-[(2R)-2-(trifluoromethyl)morpholin-4-yl]-5H-pyrrolo[3,2-d]pyrimidin-6-amine], the EC50 is reported as 0.001 µM. CC1CCN(c2ncnc3c(S(=O)(=O)c4ccccc4)c(N)[nH]c23)CC1 [Example 59, 7-(benzenesulfonyl)-4-(4-methylpiperidin-1-yl)-5H-pyrrolo[3,2-d]pyrimidin-6-amine] gave an EC50 of 0.057 µM. In the case of Cc1nc(N2CCO[C@@H](C(F)(F)F)C2)c2[nH]c(N)c(S(=O)(=O)c3ccc(Cl)cc3F)c2n1 [Example 297, 7-(4-chloro-2-fluorobenzenesulfonyl)-2-methyl-4-[(2R)-2-(trifluoromethyl)morpholin-4-yl]-5H-pyrrolo[3,2-d]pyrimidin-6-amine], the EC50 is reported as 0.002 µM. For Cc1cccc(-c2ncnc3c(S(=O)(=O)c4ccccc4)c(N)[nH]c23)c1 [Example 57, 7-(benzenesulfonyl)-4-(3-methylphenyl)-5H-pyrrolo[3,2-d]pyrimidin-6-amine], the EC50 was 0.015 µM. Molecule Cc1nc(OCC(C)(C)C)c2[nH]c(N)c(S(=O)(=O)c3ccccc3)c2n1 [Example 250, 7-(benzenesulfonyl)-4-(2,2-dimethylpropoxy)-2-methyl-5H-pyrrolo[3,2-d]pyrimidin-6-amine] has an EC50 of 0.114 µM. For COc1ccc(S(=O)(=O)c2c(N)[nH]c3c(C4CCCCC4)ncnc23)cc1 [Example 5, 4-cyclohexyl-7-[(4-methoxybenzene)sulfonyl]-5H-pyrrolo[3,2-d]pyrimidin-6-amine], the EC50 was 0.08 µM. Work on Cc1nc(N2C[C@@H](C)OC[C@H]2C)c2[nH]c(N)c(S(=O)(=O)c3ccccc3F)c2n1 [Example 232, 4-[(2R,5R)-2,5-dimethylmorpholin-4-yl]-7-(2-fluorobenzenesulfonyl)-2-methyl-5H-pyrrolo[3,2-d]pyrimidin-6-amine] yielded an EC50 of 0.003 µM. Molecule C=C(C)c1cncc2c(S(=O)(=O)c3ccccc3)c(N)[nH]c12 [Example 100, 3-(benzenesulfonyl)-7-(prop-1-en-2-yl)-1H-pyrrolo[3,2-c]pyridin-2-amine] has an EC50 of 0.145 µM. Cc1nc(N2CCOC(C)(C)C2)c2[nH]c(N)c(S(=O)(=O)c3ccccc3F)c2n1 [Example 185, 4-(2,2-dimethylmorpholin-4-yl)-7-(2-fluorobenzenesulfonyl)-2-methyl-5H-pyrrolo[3,2-d]pyrimidin-6-amine] showed an EC50 of 0.006 µM. For Cc1nc(N2CCO[C@H](C(F)(F)F)C2)c2[nH]c(N)c(S(=O)(=O)c3cc(F)ccc3F)c2n1 [Example 292], the EC50 was 0.003 µM. CC1CN(c2ncnc3c(S(=O)(=O)c4cc(F)cc(F)c4)c(N)[nH]c23)CCO1 (centres unmarked) [Example 147, 7-(3,5-difluorobenzenesulfonyl)-4-(2-methylmorpholin-4-yl)-5H-pyrrolo[3,2-d]pyrimidin-6-amine] gave an EC50 of 0.088 µM. COc1ccc(S(=O)(=O)c2c(N)[nH]c3c(N4CCC5(CC4)CC5)ncnc23)cc1 [Example 72, 4-{6-azaspiro[2.5]octan-6-yl}-7-(4-methoxybenzenesulfonyl)-5H-pyrrolo[3,2-d]pyrimidin-6-amine] gave an EC50 of 0.026 µM. Cc1nc(N2CCOC3(CC3)C2)c2[nH]c(N)c(S(=O)(=O)c3ccccc3)c2n1 [Example 205, 7-(benzenesulfonyl)-2-methyl-4-{4-oxa-7-azaspiro[2.5]octan-7-yl}-5H-pyrrolo[3,2-d]pyrimidin-6-amine] was tested, and the EC50 was 0.007 µM. In the case of CC[C@H](C)Oc1nc(C)nc2c(S(=O)(=O)c3ccccc3)c(N)[nH]c12 [Example 246, 7-(benzenesulfonyl)-4-[(2S)-butan-2-yloxy]-2-methyl-5H-pyrrolo[3,2-d]pyrimidin-6-amine], the EC50 is reported as 0.064 µM.
